Measurements as given in US9714232B2, “Substituted piperazine compounds and methods of use thereof” (Sunshine Lake Pharma Co., Ltd., priority 2013, dated 2017).

How the values were obtained:
[1] = biological target: serotonin transporter in rat synaptosome (Rattus norvegicus (Rat), UniProt P31652); assay: Inhibitory effect on [3H]5-HT uptake in rat synaptosome; type: biochemical; details: rat brain synaptosomes, 0.1 μCi [3H]5-HT, 37° C., 15 minutes
Description: The synaptosomes (150 μg) prepared from a rat brain were incubated at 37° C. for 15 minutes with 0.1 μCi [^3H]5-HT in the absence or presence of the test compound or the reference compound in a buffer solution containing 106.2 mM NaCl, 4.5 mM KCl, 2.25 mM MgSO4, 1.08 mM NaH2PO4, 22.5 mM NaHCO3, 9.9 mM glucose, 9 μM EGTA and 45 μM ascorbic acid (pH 7.4).
The basal control activity was determined by incubating the same mixture at 4° C. for 15 minutes in the presence of 10 μM imipramine to block the uptake of 5-HT, which was taken as the standard reference compound and tested in each experiment at several concentrations to obtain an inhibition curve.
Following the incubation, the samples were filtered rapidly under vacuum through glass fiber filters (GF/B, Packard) and rinsed twice with an ice-cold incubation buffer using a 96-sample cell harvester (Unifilter, Packard) to eliminate free [^3H]5-HT. The filters were dried and the retained radioactivity was measured in a scintillation counter (Topcount, Packard) using a scintillation cocktail (Microscint 0, Packard). The experimental results were expressed as a percent inhibition of the control uptake of [^3H]5-HT.
Inhibition of serotonin transporter in rat synaptosome was measured by the concentrations of [^3H]5-HT.

human 5-HT1A receptor = human 5-HT1A receptor (Homo sapiens (Human), UniProt P08908); assay: Affinity for human 5-HT1A receptor ([3H]8-OH-DPAT binding, HEK-293 cell homogenates); details: 0.3 nM [3H]8-OH-DPAT, human HEK-293 cell homogenates, 22° C., 60 minutes; Ki from IC50 by ChengPrusoff equation
human 5-HT1A receptor, sequence (P08908 whole entry): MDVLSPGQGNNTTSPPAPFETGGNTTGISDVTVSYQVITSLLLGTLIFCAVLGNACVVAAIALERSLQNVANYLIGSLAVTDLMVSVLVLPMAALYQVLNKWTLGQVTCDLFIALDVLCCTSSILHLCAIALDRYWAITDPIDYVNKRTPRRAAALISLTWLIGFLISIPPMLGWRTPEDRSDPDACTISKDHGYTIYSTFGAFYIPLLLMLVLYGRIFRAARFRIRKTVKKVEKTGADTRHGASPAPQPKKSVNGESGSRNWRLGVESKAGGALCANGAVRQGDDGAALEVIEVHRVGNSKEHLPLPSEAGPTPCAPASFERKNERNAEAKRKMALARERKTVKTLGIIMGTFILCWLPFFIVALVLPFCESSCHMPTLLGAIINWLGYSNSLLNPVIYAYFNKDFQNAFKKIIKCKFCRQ
Description: Human HEK-293 cell homogenates (36 μg protein) were incubated at 22° C. for 60 minutes with 0.3 nM [^3H]8-0H-DPAT (Perkin-Elmer) in the absence or presence of the test compound in a buffer solution containing 50 mM Tris-HCl (pH 7.4), 10 mM MgSO4, 0.5 mM EDTA and 2 μg/ml aprotinine.
The non-specific binding value was determined by incubating the same mixture in the presence of 10 μM 8-OH-DPAT, which was used as the standard reference compound and tested in each experiment at several concentrations to obtain a competition curve.
Following the incubation, the samples were filtered rapidly under vacuum through glass fiber filter (GF/B, Packard) presoaked with 0.3% PEI and rinsed several times with ice-cold 50 mM Tris-HCl using a 96-sample cell harvester (Unifilter, Packard). The filters were dried and the retained radioactivity was measured in a scintillation counter (Topcount, Packard) using a scintillation cocktail (Microscint 0, Packard). The experimental results were expressed as a percent inhibition of the control radioligand specific binding.
Binding assay of [^3H] 8-OH-DPAT (0.3 nM) with 5-HT1A receptor in human HEK-293 cell was tested by scintillation proximity assay of membrane.

serotonin transporter in rat synaptosome, sequence (P31652 whole entry): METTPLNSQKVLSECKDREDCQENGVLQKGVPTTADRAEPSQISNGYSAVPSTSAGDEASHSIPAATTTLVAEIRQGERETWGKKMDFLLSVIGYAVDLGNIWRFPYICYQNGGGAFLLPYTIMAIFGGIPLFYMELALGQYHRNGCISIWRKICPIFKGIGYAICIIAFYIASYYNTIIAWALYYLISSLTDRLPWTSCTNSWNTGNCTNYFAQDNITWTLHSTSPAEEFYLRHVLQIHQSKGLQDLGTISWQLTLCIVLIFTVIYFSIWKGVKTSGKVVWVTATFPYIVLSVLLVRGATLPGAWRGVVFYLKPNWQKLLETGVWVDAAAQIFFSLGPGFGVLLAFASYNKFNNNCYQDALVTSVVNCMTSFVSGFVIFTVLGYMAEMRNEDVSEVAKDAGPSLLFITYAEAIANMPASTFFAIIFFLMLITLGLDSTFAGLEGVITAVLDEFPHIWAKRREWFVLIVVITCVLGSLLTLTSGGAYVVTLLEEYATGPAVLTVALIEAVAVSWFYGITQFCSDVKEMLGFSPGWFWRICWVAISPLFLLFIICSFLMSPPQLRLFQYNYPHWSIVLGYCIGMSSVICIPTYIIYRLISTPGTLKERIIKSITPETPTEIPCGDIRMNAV

Row | IC50 [1] | Ki (human 5-HT1A receptor) | SMILES
1 | 7.1 nM | 0.87 nM | O=c1ccccn1-c1ccc(N2CCN(CCCc3c[nH]c4ccc(F)cc34)CC2)cc1 [Example 12, 1-(4-(4-(3-(5-fluoro-1H-indol-3-yl)propyl)piperazin-1-yl)phenyl)pyridin-2(1H)-one]
2 | 5.5 nM | 12 nM | COc1ccn(-c2ccc(N3CCN(CCCCCc4c[nH]c5ccc(C#N)cc45)CC3)cc2)c(=O)c1 [Example 24, 3-(5-(4-(4-(4-methoxy-2-oxopyridin-1(2H)-yl)phenyl)piperazin-1-yl)pentyl)-1H-indole-5-carbonitrile]
3 | 1.7 nM | 0.48 nM | Cc1ccn(-c2ccc(N3CCN(CCCCc4c[nH]c5ccc(C#N)cc45)CC3)cc2)c(=O)c1 [Example 17, 3-(4-(4-(4-(4-methyl-2-oxopyridin-1(2H)-yl)phenyl)piperazin-1-yl)butyl)-1H-indole-5-carbonitrile]
4 | 1.4 nM | 0.18 nM | N#Cc1ccc2[nH]cc(CCCCN3CCN(c4ccc(-n5cc(F)cc(F)c5=O)cc4)CC3)c2c1 [Example 25, 3-(4-(4-(4-(3,5-difluoro-2-oxopyridin-1(2H)-yl)phenyl)piperazin-1-yl)butyl)-1H-indole-5-carbonitrile]
5 | 5.5 nM | 68 nM | N#Cc1ccc2[nH]cc(CCN3CCN(c4ccc(-n5cc(F)cc(F)c5=O)cc4)CC3)c2c1 [Example 27, 3-(2-(4-(4-(3,5-difluoro-2-oxopyridin-1(2H)-yl)phenyl)piperazin-1-yl)ethyl)-1H-indole-5-carbonitrile]
6 | 0.98 nM | 1.2 nM | N#Cc1ccc2[nH]cc(CCCN3CCN(c4ccc(-n5ccccc5=O)cc4)CC3)c2c1 [Example 11, 3-(3-(4-(4-(2-oxopyridin-1(2H)-yl)phenyl)piperazin-1-yl)propyl)-1H-indole-5-carbonitrile]
7 | 4.3 nM | 3.6 nM | N#Cc1ccc2[nH]cc(CCCN3CCN(c4ccc(-n5ccc6ccccc6c5=O)cc4)CC3)c2c1 [Example 30, 3-(3-(4-(4-(1-oxoisoquinolin-2(1H)-yl)phenyl)piperazin-1-yl)propyl)-1H-indole-5-carbonitrile]
8 | 7.4 nM | 1.2 nM | COc1ccn(-c2ccc(N3CCN(CCCCc4c[nH]c5ccc(C#N)cc45)CC3)cc2)c(=O)c1 [Example 21, 3-(4-(4-(4-(4-methoxy-2-oxopyridin-1(2H)-yl)phenyl)piperazin-1-yl)butyl)-1H-indole-5-carbonitrile]
9 | 2.2 nM | 1.5 nM | N#Cc1ccc2[nH]cc(CCCCCN3CCN(c4ccc(-n5cc(F)cc(F)c5=O)cc4)CC3)c2c1 [Example 28, 3-(5-(4-(4-(3,5-difluoro-2-oxopyridin-1(2H)-yl)phenyl)piperazin-1-yl)pentyl)-1H-indole-5-carbonitrile]
10 | 4.3 nM | 2.5 nM | O=C1CCCCN1c1ccc(N2CCN(CCCCc3c[nH]c4ccc(F)cc34)CC2)cc1 [Example 1, 1-(4-(4-(4-(5-fluoro-1H-indol-3-yl)butyl)piperazin-1-yl)phenyl)piperidin-2-one]
